Test results published in US20250333419A1, “BICYCLIC COMPOUNDS AS INHIBITORS OF WRN” (Incyte Corporation, priority 2023, published 2025).

Legend:
[1] = molecular target: T1, WRN (Homo sapiens, UniProt Q14191); assay: WRN ATPase activity assay (ADP-Glo); type: biochemical; details: IC50, 1-hr pre-incubation with enzyme; geometric means of at least 2 independent replicates
T1 construct: A His-tagged construct of WRN (AA S2-S1235) was produced and used for the ATPase assay; His; made in house; host or cells: Sf9 insect cells (baculovirus)
Procedure: Compounds of the Examples were tested for WRN ATPase activity. WRN ATPase activity catalyzes ATP hydrolysis to produce ADP and phosphate. DNA encoding the target protein, 6×HIS-TEV-WRN-517-945, was produced, cloned and transfected as detailed in Example D. The amount of ADP produced was measured using ADP-Glo™ Kinase Assay kit from Promega Corporation in a Greiner white regular volume 384 wells assay plate (Greiner #781075). Data was normalized to a standard curve generated using various ADP concentrations and the corresponding luminescent signal intensities at each concentration. The assay conditions were optimized for enzyme concentration (WRN), substrate concentrations (ATP & dsDNA), and the linearity of the ATPase reaction, in the following assay buffer: 50 mM Tris-HCl, pH-7.5, 2 mM MgCl2, 50 mM NaCl, 1 mM EGTA, 0.01% P-20, 0.05% BSA, and 2 mM DTT prepared with nuclease free water.
A serial dilution (1:3 scheme) of the compounds were prepared in neat DMSO, with 100 nL of the compounds dispensed in the 384 wells assay plate. An 1-hr pre-incubation of the compounds with enzyme was included. A His-tagged construct of WRN (AA S2-S1235) was produced and used for the ATPase assay. Maximum inhibition control wells were set up with the addition of only assay buffer, and no inhibition control wells were set up with neat DMSO without test compounds. The reaction was initiated by addition of 5 μL substrate mix (200 μM ultrapure ATP, and 50 nM dsDNA prepared in assay buffer) and incubated at 25° C. for 35 min. A forked dsDNA oligomer substrate was prepared by annealing equal amounts of oligo GPat-1 ([BHQ2][…]) and oligo GPat-2 ([…][TAM]) and was used as dsDNA substrate for WRN ATPase assay. A typical ATPase reaction consists of 25 nM forked dsDNA, 100 μM ATP, and 1 nM WRN prepared in assay buffer. The WRN ATPase reaction was stopped by the addition of 5 μL of ADP-Glo Reagent from ADP-Glo™ Kinase Assay kit and incubated for 40 min to deplete the unreacted ATP. Afterwards, 5 μL of Kinase Detection Reagent from the ADP-Glo™ Kinase Assay kit was added and incubated for 1 hr for the development of luminescence signal.
Luminesce signals were measured on BMG PHERAstar FSX using luminescence protocol. Data analysis was carried out using Genedata software following % of control normalization. Fitting parameters include dose response IC50, Hill slope (n), maximum inhibition (S∞), and minimum inhibition (S0). The reported IC50 values for compounds in this invention are the geometric means of at least 2 independent replicates.

[2] = molecular target: T1, WRN; assay: WRN Helicase activity assay (fluorescence DNA unwinding); type: biochemical; details: IC50, 1-hr pre-incubation with enzyme; geometric means of at least 2 independent replicates
Procedure: Compounds of the examples were tested for WRN helicase activity. DNA encoding the target protein, 6×HIS-TEV-WRN-517-945, was produced, cloned and transfected as detailed in Example D. To determine the inhibitory properties of the compounds, a 384 wells plate-based Helicase assay was set up to measure the extent of DNA unwinding (Helicase) activity of WRN. The WRN Helicase assay was designed to measure increase in fluorescence signal using a fluorescence based, donor-quencher paired forked dsDNA oligomer substrate (custom synthesis from Sigma-Aldrich) prepared by annealing equal amounts of oligo GPat-1 ([BHQ2][…]) and oligo GPat-2 ([…][TAM]). Continuous measurement of fluorescent signal was used to optimize the buffer conditions, concentration of enzyme (WRN), concentration of substrates (ATP & dsDNA), and the linearity of the Helicase reaction. All solutions were prepared in the following assay buffer: 50 mM Tris-HCl, pH-7.5, 2 mM MgCl2, 50 mM NaCl, 1 mM EGTA, 0.01% P-20, 0.05% BSA, and 2 mM DTT prepared with nuclease free water.
A serial dilution (1:3 scheme) of the compounds was prepared in neat DMSO and 100 nL of the compounds was dispensed in the Greiner black low volume (Greiner #784076) 384 wells assay plate. An 1-hr pre-incubation of the compounds with enzyme was included. A His-tagged construct of WRN (AA S2-S1235) was produced and used for the ATPase assay. Maximum inhibition control wells were set up with the addition of only assay buffer, and no inhibition control wells were set up with neat DMSO without test compounds. The reaction was initiated by addition of 5 μL substrate mix (200 μM ultrapure ATP, and 50 nM dsDNA prepared in assay buffer) and incubated at 25° C. for 35 min. A typical Helicase reaction consists of 25 nM forked dsDNA, 100 μM ATP, and 1 nM WRN prepared in assay buffer. The WRN Helicase reaction was quenched by the addition of 5 μL ‘STOP’ solution containing 100 mM EDTA (final EDTA concentration 33.33 mM) prepared in assay buffer. The plates were read on BMG PHERAstar FSX using 540/590 module to measure an increase of fluorescence. Data analysis was carried out using the Genedata software following % of control normalization. Fitting parameters include dose response IC50, Hill slope (n), maximum inhibition (S∞), and minimum inhibition (S0). The reported IC50 values for compounds in this invention are the geometric means of at least 2 independent replicates.

[3] = molecular target: T2, WRN Cys727Ala (Homo sapiens, UniProt Q14191, C727A); assay: ATPase assay on WRN Cys727Ala mutant, without preincubation; type: biochemical
T2 construct: Point mutations were made in the His-tagged WRN construct used for biochemical characterization (aa S2-S1235); His; made in house
Procedure: (§1) Point mutations were made in the His-tagged WRN construct used for biochemical characterization (aa S2-S1235). Cysteine 580 (Walker A motif), 727 (linker), 864 (Domain 2 Å) and 1041 (RQC domain) were each mutated to both Serine and Alanine using site directed mutagenesis, for a total of eight mutants. Purified proteins were assayed in both helicase and ATPase assays. Cys580 mutation to either Ser or Ala abolished all activity, consistent with Walker A motif cysteine function. Cys864 (D2) mutation to alanine and Cys1041 (RQC domain) had no significant impact on helicase or ATPase activity. Cys727 abolished helicase activity (Table 6), whether it was mutated to Ala or Ser. ATPase activity for Cys727 mutants was reduced but not abolished (Table 7). Table 6 is the panel of the nine variant WRN helicase proteins that were screen using a flourscence-based DNA unwinding assay with an increase in flourscence intensity indicating DNA unwinding. Table 7 is the panel of the nine variant WRN helicase proteins that were screened using ADP-Glo assay to measure DNA stimulated ATPase activity, with an increase in luminescence indicating ATP hydrolysis.
(§2) From FIG. 2, the top line represented WT. […] The mutant experiments were performed without preincubation.

[4] = molecular target: T3, WRN helicase (Homo sapiens, UniProt Q14191); assay: ATPase assay on WRN helicase (ADP-Glo) with varied preincubation times; type: biochemical
T3 construct: His-tagged WRN construct used for biochemical characterization (aa S2-S1235); His; made in house; host or cells: Sf9 insect cells (baculovirus)
Procedure: An ATPase assay on WRN helicase was performed using ADP-Glo and IC50 values were determined by varying the compound of Example 1 preincubation times (FIG. 1). […] In FIG. 1, 0 hrs is represented by bottom dotted line; 1 hour is represented by the broken line with two bullets; 2 hrs is represented by solid line; and 4 hrs is represented by top dashed line.

[5] = molecular target: T4, WRN Cys727Ser (Homo sapiens, UniProt Q14191, C727S); assay: ATPase assay on WRN Cys727Ser mutant, without preincubation; type: biochemical
T4 construct: Point mutations were made in the His-tagged WRN construct used for biochemical characterization (aa S2-S1235); His; made in house
Procedure: as §1, §2

[6] = tested on: WRN helicase; assay: Intact mass spectrometry and peptide mapping of covalent modification; type: binding
Procedure: The intact WRN helicase has an observed mass of 67,573.1 Da (theoretical mass of 67,409.4 Da). The WRN helicase incubated with the compound of Example 1 has an observed mass of 68,164.5 (theoretical mass of 1:1 adduct 68,000 Da). The shift in the observed mass between intact WRN and WRN incubated with the compound of Example 1 is equivalent to the theorectical mass of the compound of Example 1 (592.2 Da). […] The mass spectrometry results, combined with the ATPase assay results established that covalently targeting Cys727 is and effective and tractable way to inhibit both the ATPase and helicase activities of WRN.

T2 sequence (Q14191 2-1235 C727A): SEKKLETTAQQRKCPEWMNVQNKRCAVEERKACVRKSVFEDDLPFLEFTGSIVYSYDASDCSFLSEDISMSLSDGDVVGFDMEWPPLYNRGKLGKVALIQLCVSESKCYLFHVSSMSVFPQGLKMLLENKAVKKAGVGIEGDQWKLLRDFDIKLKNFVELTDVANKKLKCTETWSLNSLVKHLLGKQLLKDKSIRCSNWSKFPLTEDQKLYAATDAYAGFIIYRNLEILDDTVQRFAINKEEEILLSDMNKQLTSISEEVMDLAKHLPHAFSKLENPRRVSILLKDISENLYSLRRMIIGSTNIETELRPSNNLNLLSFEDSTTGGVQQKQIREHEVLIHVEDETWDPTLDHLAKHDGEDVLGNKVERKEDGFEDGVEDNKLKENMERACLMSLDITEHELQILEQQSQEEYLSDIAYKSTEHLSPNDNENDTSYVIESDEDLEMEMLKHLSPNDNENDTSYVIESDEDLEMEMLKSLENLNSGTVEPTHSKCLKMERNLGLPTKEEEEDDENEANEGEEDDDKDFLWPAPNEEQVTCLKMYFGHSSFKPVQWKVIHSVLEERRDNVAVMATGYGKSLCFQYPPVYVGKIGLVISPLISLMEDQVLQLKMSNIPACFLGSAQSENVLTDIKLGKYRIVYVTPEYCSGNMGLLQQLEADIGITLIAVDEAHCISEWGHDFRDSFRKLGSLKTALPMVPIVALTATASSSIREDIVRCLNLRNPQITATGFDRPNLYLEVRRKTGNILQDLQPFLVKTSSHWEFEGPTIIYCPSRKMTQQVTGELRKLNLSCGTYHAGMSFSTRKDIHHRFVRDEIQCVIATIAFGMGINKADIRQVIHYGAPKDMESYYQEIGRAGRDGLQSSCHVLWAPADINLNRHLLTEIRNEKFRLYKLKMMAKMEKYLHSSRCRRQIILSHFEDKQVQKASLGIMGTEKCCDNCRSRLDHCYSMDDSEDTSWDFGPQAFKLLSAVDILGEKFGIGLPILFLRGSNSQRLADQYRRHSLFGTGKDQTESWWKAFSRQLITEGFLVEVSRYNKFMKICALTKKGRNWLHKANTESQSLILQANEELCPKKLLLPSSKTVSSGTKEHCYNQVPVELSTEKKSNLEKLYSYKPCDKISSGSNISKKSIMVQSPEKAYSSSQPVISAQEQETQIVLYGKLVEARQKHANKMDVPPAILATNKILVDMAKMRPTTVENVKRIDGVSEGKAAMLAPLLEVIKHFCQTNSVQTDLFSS
T3 sequence (Q14191 2-1235): as the sequence (Q14191 2-1235 C727A) above, with A726C counted along it
T1 sequence (Q14191 2-1235): as the sequence (Q14191 2-1235 C727A) above, with A726C counted along it
T4 sequence (Q14191 2-1235 C727S): as the sequence (Q14191 2-1235 C727A) above, with A726S counted along it

- IC50 [1]: < 100 nM
- IC50 [2]: < 100 nM
- fold shift relative to WT ([3]; Cys727Ala vs WT, without preincubation): 13 fold
- IC50 ([3]; Cys727Ala, without preincubation): 5820 nM
- effect of Cys 727 mutation on potency ([3]; FIG. 2, Cys727Ala and Cys727Ser): reduces the potency
- IC50 ([4]; preincubation 1 hour): 24 nM
- IC50 ([4]; preincubation 2 hrs): 12 nM
- IC50 ([4]; preincubation 4 hrs): 8 nM
- IC50 ([4]; without preincubation): 449 nM
- IC50 ([5]; Cys727Ser): 38500 nM
- fold shift relative to WT ([5]; Cys727Ser vs WT): 86 fold
- adduct formation with WRN helicase ([6]; intact mass spectrometry): 1:1 adduct
Structure (SMILES): C=CC(=O)Nc1ccccc1-c1c(CC)n(CC(=O)Nc2ccc(C(F)(F)F)cc2)c2nc(C3=CCOCC3)nn2c1=O [Example 1, N-(2-(2-(3,6-Dihydro-2H-pyran-4-yl)-5-ethyl-7-oxo-4-(2-oxo-2-((4-(trifluoromethyl)phenyl)amino)ethyl)-4,7-dihydro-[1,2,4]triazolo[1,5-a]pyrimidin-6-yl)phenyl)acrylamide]
- time dependence of inhibition ([4]; FIG. 1): inhibits WRN helicase in a time dependent manner
- residue modified ([6]; peptide mapping analysis): Cys727 is the only residue to be modified
